Legend:
[1] = target: Sodium-dependent dopamine transporter (Rattus norvegicus, UniProt P23977); assay: Inhibition of [3H]-GBR-12,935 binding to dopamine transporter (DAT) of rat striatal membranes; format: cell membranes, Membrane
[2] = target: Norepinephrine transporter (Rattus norvegicus, UniProt Q9WTR4); assay: Inhibition of [3H]nisoxetine binding to norepinephrine transporter (NET) of rat cortical homogenates
[3] = target: Sodium-dependent serotonin transporter (Rattus norvegicus, UniProt P31652); assay: Inhibition of [3H]paroxetine binding to serotonin transporter (SERT) of rat cortical membrane
Sodium-dependent serotonin transporter, sequence (P31652 whole entry): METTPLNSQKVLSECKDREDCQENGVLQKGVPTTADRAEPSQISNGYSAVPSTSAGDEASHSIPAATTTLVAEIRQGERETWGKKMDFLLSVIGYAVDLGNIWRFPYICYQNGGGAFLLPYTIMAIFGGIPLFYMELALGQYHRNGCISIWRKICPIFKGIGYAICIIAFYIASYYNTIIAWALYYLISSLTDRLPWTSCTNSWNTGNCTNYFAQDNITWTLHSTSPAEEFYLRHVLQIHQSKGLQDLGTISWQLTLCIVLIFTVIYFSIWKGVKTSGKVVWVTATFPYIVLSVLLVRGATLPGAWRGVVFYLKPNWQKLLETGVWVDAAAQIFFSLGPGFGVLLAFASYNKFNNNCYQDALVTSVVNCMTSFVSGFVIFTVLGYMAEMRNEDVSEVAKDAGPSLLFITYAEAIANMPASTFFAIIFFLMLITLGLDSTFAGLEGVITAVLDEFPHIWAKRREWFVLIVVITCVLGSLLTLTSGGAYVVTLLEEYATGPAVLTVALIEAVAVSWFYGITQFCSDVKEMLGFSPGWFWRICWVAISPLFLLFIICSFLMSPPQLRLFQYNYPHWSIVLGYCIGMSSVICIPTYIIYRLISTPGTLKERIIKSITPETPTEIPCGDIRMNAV

Norepinephrine transporter, sequence (Q9WTR4 whole entry): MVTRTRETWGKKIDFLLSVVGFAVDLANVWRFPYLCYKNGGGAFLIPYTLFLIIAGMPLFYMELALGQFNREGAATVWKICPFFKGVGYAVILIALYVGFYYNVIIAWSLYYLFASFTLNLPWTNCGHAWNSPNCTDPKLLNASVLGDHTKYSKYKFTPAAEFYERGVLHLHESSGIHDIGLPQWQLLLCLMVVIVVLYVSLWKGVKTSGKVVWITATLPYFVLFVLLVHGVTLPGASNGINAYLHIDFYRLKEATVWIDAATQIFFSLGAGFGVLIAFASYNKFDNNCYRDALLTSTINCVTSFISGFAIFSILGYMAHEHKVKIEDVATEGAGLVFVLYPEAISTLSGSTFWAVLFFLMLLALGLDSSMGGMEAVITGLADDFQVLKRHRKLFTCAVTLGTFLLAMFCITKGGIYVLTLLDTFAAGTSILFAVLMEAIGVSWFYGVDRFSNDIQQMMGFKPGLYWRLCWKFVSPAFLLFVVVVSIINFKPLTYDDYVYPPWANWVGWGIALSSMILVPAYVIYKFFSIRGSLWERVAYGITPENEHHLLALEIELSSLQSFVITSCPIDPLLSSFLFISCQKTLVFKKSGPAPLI
Sodium-dependent dopamine transporter, sequence (P23977 whole entry): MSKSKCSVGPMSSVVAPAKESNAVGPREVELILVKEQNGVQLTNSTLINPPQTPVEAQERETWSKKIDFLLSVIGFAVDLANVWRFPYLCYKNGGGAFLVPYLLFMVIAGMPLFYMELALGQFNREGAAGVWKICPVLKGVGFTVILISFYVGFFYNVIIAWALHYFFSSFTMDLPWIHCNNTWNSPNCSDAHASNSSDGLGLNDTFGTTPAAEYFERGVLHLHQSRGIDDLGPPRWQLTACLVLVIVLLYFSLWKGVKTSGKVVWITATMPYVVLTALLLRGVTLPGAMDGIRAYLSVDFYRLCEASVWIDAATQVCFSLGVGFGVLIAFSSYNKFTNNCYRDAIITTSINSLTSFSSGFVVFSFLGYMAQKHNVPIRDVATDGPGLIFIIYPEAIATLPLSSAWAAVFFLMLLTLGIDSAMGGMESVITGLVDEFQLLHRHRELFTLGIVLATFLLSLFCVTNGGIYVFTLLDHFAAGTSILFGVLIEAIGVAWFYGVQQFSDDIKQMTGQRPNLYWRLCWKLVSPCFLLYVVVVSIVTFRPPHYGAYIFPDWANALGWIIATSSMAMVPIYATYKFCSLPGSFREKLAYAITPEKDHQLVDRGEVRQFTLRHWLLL

SMILES	Ki [1] [nM]	Ki [2] [nM]	Ki [3] [nM]
CN(C)Cc1ccccc1Sc1ccc(/C=C/I)cc1N	> 1000	80.2	53.3
CN(C)Cc1ccccc1Sc1ccc(I)cc1N	> 1000	683	
Cc1ccc(Sc2ccccc2CN(C)C)c(N)c1	> 1000	325	1.65
CN(CCF)Cc1ccccc1Sc1ccc(I)cc1N	> 1000	> 1000	19.3
CN(C)C(=O)c1ccccc1Sc1ccc(Br)cc1C=O	> 1000	> 1000	> 1000
CN(C)C(=O)c1ccccc1Sc1ccc(F)cc1C=O	> 1000	> 1000	695

Results, then the molecule that gave them:

Ki [1] [nM]	Ki [2] [nM]	Ki [3] [nM]	SMILES
760	12.8	0.98	CNCc1ccccc1Sc1ccc(I)cc1CO
> 1000	326	2.75	COCc1cc(Br)ccc1Sc1ccccc1CN(C)C
950	5.8	1.92	CN(C)Cc1ccccc1Sc1ccc(Br)cc1CO
818	714	1.25	CNCc1ccccc1Sc1ccc(I)cc1N
171	107	2.23	CN(C)Cc1ccccc1Sc1ccc(Br)cc1N
172	212	2.5	COCc1cc(I)ccc1Sc1ccccc1CN(C)C
339	28.4	7.96	CN(C)Cc1ccccc1Sc1ccc(F)cc1CO
171	107	1.49	CNCc1ccccc1Sc1ccc(Br)cc1N

Reference: ChEMBL document CHEMBL1135886, “Substituted diphenyl sulfides as selective serotonin transporter ligands: synthesis and in vitro evaluation” (J Med Chem, 2002)
